# Calls of active or inactive are those of the source.
# Legend:
# Phospholipase A2 = Phospholipase A2 (Homo sapiens, UniProt P04054); type: functional;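 further: confirmatory dose-response counterscreen on phospholipase A2, testing hits that came from an ultra-high-throughput screen for ATG4B inhibitors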
# Cysteine protease ATG4B = Cysteine protease ATG4B (Homo sapiens, UniProt Q9Y4P1); type: functional;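 further: Fluorescence-based dose-response confirmation assay measuring inhibition of ATG4B activity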
# Chain of Cysteine protease ATG4B (Q9Y4P1 whole entry): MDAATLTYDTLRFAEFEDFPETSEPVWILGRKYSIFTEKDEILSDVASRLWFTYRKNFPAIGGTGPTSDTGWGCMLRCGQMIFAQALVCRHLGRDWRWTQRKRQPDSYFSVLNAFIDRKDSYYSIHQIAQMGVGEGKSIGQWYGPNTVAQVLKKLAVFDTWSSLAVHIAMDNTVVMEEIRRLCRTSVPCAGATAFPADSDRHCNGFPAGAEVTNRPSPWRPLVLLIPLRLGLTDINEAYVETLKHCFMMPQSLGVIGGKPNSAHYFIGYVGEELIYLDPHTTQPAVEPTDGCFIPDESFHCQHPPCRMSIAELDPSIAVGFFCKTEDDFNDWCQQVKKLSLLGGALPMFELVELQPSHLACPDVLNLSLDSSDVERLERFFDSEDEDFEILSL
# Beta-galactosidase = Beta-galactosidase (Escherichia coli, UniProt Q8VNN2); experiment: PubChem AID 485352; type: functional
# Chain of Beta-galactosidase (Q8VNN2 whole entry): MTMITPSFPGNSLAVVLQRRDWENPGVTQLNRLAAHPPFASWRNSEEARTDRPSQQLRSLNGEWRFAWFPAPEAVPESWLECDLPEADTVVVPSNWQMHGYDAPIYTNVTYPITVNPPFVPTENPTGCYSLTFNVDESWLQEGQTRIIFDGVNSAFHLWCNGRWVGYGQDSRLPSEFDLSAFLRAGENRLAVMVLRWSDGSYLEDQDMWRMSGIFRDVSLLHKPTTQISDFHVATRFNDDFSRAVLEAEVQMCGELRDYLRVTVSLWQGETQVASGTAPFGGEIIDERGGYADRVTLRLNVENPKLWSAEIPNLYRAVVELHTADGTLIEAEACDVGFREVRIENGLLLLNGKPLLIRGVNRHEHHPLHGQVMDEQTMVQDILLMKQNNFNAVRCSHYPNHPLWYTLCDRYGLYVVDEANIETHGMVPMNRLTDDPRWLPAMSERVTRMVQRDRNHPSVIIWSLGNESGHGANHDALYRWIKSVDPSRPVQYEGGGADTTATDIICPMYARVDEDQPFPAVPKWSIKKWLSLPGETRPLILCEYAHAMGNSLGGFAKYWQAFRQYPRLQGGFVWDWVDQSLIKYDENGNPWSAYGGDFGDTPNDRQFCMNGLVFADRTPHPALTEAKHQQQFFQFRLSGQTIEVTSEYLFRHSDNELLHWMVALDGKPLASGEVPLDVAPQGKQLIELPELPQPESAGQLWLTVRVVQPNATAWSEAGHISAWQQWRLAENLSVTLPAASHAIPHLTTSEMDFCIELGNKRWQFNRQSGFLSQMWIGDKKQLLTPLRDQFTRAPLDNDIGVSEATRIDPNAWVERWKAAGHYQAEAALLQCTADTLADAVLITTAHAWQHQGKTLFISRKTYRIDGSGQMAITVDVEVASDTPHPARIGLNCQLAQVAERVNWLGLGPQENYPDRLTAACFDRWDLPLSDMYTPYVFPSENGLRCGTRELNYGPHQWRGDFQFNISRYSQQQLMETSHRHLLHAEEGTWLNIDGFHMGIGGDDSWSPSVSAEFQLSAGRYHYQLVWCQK
# [1] = molecular target: Type-1 angiotensin II receptor (Homo sapiens, UniProt P30556); experiment: antagonism of angiotensin II type 1 receptor – cell-based, uHTS hits, selectivity assay for APJ receptor antagonist project, dose response (AID 463214); type: functional;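 further: antagonist potency against angiotensin II stimulated AT1 response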
# Chain of Type-1 angiotensin II receptor (P30556 whole entry): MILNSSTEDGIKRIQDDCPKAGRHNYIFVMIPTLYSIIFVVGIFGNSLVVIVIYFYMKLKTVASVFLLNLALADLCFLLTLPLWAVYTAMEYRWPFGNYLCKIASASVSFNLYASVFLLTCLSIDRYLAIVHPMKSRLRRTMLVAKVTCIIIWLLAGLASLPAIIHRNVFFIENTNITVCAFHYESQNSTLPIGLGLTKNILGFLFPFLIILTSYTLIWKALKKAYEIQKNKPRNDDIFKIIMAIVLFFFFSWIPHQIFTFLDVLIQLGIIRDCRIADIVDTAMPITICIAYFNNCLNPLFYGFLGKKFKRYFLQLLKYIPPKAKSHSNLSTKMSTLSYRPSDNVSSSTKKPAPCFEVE
# [2] = molecular target: T1, Short transient receptor potential channel 4 (Mus musculus, UniProt Q9QUQ5); experiment: calcium entry via TRPC4 opening agents – cell-based, HEK293 TRPC4/mu-opioid, Fluo-4 calcium, dose response (AID 434937); type: functional
# T1 sequence (Q9QUQ5 whole entry): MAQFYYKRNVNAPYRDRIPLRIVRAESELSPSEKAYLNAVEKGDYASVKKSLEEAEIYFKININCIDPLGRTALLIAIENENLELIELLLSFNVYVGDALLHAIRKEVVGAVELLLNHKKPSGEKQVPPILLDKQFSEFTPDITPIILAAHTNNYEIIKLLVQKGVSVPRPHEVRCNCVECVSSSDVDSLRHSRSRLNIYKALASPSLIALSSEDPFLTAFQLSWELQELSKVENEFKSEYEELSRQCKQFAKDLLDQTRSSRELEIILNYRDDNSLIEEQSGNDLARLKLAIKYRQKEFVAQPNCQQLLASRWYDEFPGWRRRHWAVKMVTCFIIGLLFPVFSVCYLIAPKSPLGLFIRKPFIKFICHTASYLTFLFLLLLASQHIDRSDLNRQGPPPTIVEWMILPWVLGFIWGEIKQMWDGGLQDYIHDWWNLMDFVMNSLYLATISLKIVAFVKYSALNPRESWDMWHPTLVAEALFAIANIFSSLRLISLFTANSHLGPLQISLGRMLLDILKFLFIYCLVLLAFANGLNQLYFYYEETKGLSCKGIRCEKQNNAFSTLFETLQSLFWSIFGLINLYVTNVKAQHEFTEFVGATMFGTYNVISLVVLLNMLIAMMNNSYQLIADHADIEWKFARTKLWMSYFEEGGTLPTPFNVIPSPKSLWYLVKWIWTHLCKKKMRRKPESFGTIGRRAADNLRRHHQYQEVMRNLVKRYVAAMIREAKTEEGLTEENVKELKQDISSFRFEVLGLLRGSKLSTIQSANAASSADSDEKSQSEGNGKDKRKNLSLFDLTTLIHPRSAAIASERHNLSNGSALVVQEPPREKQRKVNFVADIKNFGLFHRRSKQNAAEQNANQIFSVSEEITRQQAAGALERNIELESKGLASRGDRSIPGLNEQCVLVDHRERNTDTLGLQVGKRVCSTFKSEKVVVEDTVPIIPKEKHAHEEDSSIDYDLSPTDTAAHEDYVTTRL
# Mu-type opioid receptor = Mu-type opioid receptor (Homo sapiens, UniProt P35372); experiment: (§1) Counterscreen for agonists of heterodimerization of the mu 1 (OPRM1) and delta 1 (OPRD1) opioid receptors: Luminescence-based cell-based high throughput dose response assay to identify agonists of OPRM1 homodimerization.; type: functional
# Chain of Mu-type opioid receptor (P35372 whole entry): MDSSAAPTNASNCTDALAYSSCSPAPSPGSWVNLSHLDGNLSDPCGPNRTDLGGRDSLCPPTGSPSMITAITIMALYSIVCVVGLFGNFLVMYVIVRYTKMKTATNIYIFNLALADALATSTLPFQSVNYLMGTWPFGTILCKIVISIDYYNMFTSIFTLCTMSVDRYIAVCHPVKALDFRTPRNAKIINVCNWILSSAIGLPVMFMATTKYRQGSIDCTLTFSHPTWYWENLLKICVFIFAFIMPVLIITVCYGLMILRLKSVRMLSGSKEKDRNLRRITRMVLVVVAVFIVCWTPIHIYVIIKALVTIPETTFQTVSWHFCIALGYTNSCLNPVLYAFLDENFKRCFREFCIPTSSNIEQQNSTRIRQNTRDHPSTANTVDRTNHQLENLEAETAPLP
# [3] = molecular target: 5-hydroxytryptamine receptor 5A (Homo sapiens, UniProt P47898); experiment: Counterscreen for agonists of OPRM1-OPRD1 heterodimerization: luminescence-based cell-based high throughput dose response assay to identify agonists of 5-hydroxytryptamine (serotonin) 5A receptor (HTR5A). [Related pubchem assays (depositor defined):AID504326, AID504355, AID504692, AID504904, AID504905]; type: functional
# Chain of 5-hydroxytryptamine receptor 5A (P47898 whole entry): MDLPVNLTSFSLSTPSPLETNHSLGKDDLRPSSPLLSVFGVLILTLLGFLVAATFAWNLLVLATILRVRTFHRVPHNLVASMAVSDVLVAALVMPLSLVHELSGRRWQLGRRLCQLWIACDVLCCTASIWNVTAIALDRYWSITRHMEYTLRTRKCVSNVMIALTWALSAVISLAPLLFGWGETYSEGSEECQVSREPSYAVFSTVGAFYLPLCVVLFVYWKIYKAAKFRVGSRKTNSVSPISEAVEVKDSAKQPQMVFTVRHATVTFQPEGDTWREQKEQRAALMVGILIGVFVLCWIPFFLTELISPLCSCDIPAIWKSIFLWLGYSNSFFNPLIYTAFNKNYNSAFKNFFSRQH
# [4] = molecular target: Delta-type opioid receptor (Homo sapiens, UniProt P41143); experiment: as §1, with “of OPRD1” for “of OPRM1”, “homodimerization. [Related pubchem assays (depositor defined):AID504326, AID504355, AID504692, AID504904, AID504905]” for “homodimerization.”; type: functional
# Escherichia coli [5] = experiment: microbe, parasite or virus in culture
# Escherichia coli [6] = experiment: microbe, parasite or virus in culture; remark: listed apart in the source
# [7] = molecular target: Voltage-gated inwardly rectifying potassium channel KCNH2 (Homo sapiens, UniProt Q12809); settings: Potency;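 further: confirmatory quantitative high-throughput screen measuring inhibition of hERG channel activity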
# Chain of Voltage-gated inwardly rectifying potassium channel KCNH2 (Q12809 whole entry): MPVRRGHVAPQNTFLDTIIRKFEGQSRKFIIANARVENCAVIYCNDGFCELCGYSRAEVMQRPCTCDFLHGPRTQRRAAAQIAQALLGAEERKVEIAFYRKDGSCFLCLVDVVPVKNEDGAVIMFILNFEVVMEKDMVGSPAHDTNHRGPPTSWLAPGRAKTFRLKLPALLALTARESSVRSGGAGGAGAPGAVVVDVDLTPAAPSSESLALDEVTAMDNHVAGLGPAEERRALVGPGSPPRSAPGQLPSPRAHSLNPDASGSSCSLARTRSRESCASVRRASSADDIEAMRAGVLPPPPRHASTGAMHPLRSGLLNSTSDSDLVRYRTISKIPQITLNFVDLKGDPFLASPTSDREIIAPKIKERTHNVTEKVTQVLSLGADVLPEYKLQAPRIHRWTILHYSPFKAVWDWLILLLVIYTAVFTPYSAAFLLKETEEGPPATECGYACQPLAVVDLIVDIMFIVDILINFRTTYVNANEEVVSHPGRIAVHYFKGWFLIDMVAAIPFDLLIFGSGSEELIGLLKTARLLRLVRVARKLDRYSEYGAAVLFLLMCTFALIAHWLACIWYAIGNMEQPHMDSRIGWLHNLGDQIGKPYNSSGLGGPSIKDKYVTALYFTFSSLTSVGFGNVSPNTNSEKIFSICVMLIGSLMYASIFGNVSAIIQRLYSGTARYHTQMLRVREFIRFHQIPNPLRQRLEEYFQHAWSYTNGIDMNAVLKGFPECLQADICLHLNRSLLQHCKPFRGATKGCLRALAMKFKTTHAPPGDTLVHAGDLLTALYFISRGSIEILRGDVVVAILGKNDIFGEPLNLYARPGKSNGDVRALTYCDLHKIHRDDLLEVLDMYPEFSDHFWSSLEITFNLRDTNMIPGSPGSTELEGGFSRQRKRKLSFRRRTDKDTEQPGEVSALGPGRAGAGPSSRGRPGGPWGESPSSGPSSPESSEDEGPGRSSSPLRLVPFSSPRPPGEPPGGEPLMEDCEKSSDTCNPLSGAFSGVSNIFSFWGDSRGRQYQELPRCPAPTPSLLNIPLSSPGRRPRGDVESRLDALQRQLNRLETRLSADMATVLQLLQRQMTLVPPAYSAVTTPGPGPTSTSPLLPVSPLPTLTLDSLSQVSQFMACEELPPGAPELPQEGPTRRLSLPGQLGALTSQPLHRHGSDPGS
# Genome polyprotein = Genome polyprotein (dengue virus type 2, UniProt P29990); experiment: flavivirus cap methylation enzyme inhibition – biochemical, confirmation dose response, primary screen (AID 588689); type: functional
# Chain of Genome polyprotein (P29990 2492-3391 limits assumed): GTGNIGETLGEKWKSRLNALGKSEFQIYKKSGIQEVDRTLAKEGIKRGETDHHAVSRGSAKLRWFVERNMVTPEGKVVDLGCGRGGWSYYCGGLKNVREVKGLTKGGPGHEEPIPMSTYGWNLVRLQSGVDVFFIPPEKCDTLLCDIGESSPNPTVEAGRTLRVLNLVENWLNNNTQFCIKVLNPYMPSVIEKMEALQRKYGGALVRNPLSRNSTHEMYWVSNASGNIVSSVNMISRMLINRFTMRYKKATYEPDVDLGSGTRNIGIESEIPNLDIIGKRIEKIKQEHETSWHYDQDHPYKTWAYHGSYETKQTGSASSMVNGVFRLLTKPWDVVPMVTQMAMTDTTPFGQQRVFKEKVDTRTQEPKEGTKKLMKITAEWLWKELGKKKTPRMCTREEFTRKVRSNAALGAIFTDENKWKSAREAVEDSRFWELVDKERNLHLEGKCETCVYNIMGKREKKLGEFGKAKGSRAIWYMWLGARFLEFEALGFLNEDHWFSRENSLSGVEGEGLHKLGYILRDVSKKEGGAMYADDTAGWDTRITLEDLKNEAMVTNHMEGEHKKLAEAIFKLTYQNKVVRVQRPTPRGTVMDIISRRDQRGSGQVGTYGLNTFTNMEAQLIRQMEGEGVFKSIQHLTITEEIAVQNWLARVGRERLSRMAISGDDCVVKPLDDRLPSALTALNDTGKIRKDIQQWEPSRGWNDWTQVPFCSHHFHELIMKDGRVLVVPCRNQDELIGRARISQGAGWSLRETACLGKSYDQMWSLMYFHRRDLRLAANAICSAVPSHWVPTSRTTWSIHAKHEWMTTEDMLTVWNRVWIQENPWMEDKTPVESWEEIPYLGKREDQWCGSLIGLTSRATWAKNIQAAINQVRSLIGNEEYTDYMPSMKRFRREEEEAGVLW
# Vero = experiment: viability of Vero cells under compound – cytotoxicity control for flavivirus capping enzyme inhibitors (AID 588742); type: functional; settings: Chlorocebus sabaeus
# [8] = molecular target: Photoreceptor-specific nuclear receptor (Homo sapiens, UniProt Q9Y5X4); type: functional, cell-based;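 further: CHO-S cells with Gal4-NCOR and VP16-NR2E3 two-hybrid luciferase reporter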
# [9] = molecular target: T1, Short transient receptor potential channel 4; experiment: block of DAMGO-driven TRPC4 calcium entry – cell-based, HEK293 TRPC4/mu-opioid, Fluo-4 calcium, dose response (AID 434942); type: functional;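 further: potency of inhibitors blocking the TRPC4 calcium response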
# [10] = molecular target: T2, Sentrin-specific protease 7 (Homo sapiens, UniProt Q9BQF6); experiment: inhibition of human SENP7 cleavage activity – biochemical, luminescence, SAR follow-up (AID 504497); type: functional
# T2 sequence (Q9BQF6 whole entry): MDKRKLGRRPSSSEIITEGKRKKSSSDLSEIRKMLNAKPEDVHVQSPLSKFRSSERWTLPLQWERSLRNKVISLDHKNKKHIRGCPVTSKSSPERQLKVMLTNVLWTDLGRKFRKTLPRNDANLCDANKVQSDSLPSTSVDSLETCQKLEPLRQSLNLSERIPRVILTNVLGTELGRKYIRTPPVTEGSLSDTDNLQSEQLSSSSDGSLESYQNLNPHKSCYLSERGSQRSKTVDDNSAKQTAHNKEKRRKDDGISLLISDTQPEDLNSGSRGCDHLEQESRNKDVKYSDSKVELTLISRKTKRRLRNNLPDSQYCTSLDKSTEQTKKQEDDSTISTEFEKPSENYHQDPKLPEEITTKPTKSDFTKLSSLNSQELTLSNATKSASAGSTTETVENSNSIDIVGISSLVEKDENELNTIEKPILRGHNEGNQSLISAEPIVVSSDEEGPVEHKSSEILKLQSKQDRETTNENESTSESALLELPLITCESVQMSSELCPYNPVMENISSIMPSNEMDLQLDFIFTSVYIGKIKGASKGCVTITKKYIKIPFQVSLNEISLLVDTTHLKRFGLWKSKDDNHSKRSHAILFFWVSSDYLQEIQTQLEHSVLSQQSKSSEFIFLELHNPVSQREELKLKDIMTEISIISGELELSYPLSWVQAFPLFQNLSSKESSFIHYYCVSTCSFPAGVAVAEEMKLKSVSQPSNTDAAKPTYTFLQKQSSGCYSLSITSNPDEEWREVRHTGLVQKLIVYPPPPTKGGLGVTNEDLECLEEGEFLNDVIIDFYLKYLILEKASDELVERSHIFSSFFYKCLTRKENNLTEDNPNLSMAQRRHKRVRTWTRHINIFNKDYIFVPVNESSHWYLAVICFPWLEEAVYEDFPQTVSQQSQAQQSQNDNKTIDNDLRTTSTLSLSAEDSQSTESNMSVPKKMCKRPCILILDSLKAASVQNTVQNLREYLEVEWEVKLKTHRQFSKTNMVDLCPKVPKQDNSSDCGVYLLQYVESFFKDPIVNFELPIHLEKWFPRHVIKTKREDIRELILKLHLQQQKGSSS
# [11] = molecular target: T3, Sentrin-specific protease 6 (Homo sapiens, UniProt Q9GZR1); experiment: SAR Analysis of small molecule inhibitors of Sentrin-specific protease 6 (SENP6) using a Luminescent assay. [Related pubchem assays (depositor defined):AID2582, AID2599]; type: functional
# T3 sequence (Q9GZR1 whole entry): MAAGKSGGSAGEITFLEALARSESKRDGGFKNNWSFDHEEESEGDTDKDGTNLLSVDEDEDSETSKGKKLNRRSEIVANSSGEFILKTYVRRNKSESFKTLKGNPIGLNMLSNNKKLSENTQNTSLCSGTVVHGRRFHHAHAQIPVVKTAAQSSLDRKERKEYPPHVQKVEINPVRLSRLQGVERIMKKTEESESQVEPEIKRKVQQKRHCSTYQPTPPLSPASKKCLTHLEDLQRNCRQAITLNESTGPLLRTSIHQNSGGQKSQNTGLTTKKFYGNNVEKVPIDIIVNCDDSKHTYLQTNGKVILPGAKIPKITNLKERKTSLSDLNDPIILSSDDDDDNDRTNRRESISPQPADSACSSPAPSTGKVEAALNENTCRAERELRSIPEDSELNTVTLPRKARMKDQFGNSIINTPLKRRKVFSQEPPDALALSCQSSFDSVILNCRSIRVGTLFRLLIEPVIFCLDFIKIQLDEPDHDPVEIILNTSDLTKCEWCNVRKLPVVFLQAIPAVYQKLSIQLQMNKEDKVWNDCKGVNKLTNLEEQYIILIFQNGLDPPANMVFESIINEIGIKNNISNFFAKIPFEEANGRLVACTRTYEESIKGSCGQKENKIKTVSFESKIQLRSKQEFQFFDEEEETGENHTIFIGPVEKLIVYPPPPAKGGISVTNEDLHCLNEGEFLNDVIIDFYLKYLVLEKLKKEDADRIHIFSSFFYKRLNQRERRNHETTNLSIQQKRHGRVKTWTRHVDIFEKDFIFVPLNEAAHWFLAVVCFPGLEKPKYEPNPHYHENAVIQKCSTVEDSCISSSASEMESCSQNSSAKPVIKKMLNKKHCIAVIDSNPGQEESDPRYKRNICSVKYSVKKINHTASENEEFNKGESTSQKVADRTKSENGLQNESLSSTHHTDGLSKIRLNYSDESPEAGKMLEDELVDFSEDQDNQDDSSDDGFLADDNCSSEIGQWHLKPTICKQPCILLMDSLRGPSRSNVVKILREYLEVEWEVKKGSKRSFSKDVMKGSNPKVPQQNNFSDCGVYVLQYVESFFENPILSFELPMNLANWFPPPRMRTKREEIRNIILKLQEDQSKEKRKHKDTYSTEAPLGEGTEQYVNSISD
# [12] = molecular target: T4, Sentrin-specific protease 8 (Homo sapiens, UniProt Q96LD8); experiment: inhibition of human SENP8 cleavage activity – biochemical, luminescence, SAR follow-up (AID 504501); type: functional
# T4 sequence (Q96LD8 whole entry): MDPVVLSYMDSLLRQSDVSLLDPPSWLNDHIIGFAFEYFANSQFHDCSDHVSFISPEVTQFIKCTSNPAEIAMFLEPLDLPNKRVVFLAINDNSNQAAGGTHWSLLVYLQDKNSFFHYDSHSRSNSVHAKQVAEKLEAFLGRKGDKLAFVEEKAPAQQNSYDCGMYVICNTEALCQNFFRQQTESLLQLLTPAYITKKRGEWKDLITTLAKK
# Caspase-3 = molecular target: T5, Caspase-3 (Homo sapiens, UniProt P42574); experiment: SAR Analysis of small molecule inhibitors of Sentrin-specific proteases (SENPs) using a Caspase-3 Selectivity assay. [Related pubchem assays (depositor defined):AID2540, AID2599, AID434973, AID489001]; type: functional
# T5 sequence (P42574 whole entry): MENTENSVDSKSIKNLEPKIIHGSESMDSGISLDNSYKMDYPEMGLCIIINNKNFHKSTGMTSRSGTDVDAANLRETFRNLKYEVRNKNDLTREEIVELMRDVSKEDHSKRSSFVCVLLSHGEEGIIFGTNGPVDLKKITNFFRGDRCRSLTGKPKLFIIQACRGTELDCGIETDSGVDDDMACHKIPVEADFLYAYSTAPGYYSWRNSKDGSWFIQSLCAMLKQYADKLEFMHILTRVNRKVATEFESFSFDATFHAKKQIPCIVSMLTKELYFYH
# [13] = molecular target: DNA dC->dU-editing enzyme APOBEC-3G (Homo sapiens, UniProt Q9HC16); experiment: inhibition of APOBEC3G ssDNA deamination – biochemical, fluorescence, single-stranded DNA substrate, SAR follow-up (AID 602136); type: functional; settings: read-out: IC50_Mean
# [14] = molecular target: DNA dC->dU-editing enzyme APOBEC-3A (Homo sapiens, UniProt P31941); experiment: SAR analysis of small molecule inhibitors of APOBEC3A DNA Deaminase via a fluorescence-based single-stranded DNA deaminase assay.; type: functional; settings: read-out: IC50_Mean
# Chain of DNA dC->dU-editing enzyme APOBEC-3A (P31941 whole entry): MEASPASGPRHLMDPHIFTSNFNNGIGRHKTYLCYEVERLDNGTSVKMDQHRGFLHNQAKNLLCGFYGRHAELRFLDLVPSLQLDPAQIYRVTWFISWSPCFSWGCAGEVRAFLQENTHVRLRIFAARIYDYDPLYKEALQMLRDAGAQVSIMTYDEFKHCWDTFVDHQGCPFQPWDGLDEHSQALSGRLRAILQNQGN
# [15] = molecular target: Heat shock protein HSP 90-alpha (Homo sapiens, UniProt P07900); type: functional, organism-based
# [16] = Luminescence Cell-Based Dose Retest to Confirm Inhibitors of Cancer Stem Cells. [Related pubchem assays (depositor defined):AID2717, AID2721]; type: functional; settings: Homo sapiens
# Chain of Phospholipase A2 (P04054 whole entry): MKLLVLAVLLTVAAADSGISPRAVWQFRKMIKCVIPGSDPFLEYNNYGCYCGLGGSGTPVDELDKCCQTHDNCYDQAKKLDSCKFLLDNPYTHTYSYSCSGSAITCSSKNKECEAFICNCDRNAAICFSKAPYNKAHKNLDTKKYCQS
structure (smiles),measurement,setting,value
O=C(CNCC1CCCCC1)Nc1ccccc1N1CCCCC1,IC50,Phospholipase A2,9.35 µM (active)
same,IC50,Cysteine protease ATG4B,10.8 µM (active)
Cc1ccc(C(=O)NCC(=O)OCC(=O)c2ccc(C)c([N+](=O)[O-])c2)cc1,EC50,Beta-galactosidase,> 40 µM (inactive)
same,IC50,[1],36.4 µM (not active)
CCOC(=O)C1(CC2CCCCO2)CCN(Cc2cc(F)ccc2-n2cccn2)CC1 (centres undefined),EC50,[2],0.473 µM (active)
same,EC50,Mu-type opioid receptor,> 92.5 µM (inactive)
same,EC50,[3],> 92.5 µM (inactive)
same,EC50,[4],> 92.5 µM (inactive)
CSc1cccc(N=C2C(=O)Nc3ccccc32)c1,EC50,Beta-galactosidase,> 40 µM (inactive)
same,IC50,[1],> 40 µM (not active)
COCCCn1c(SCCc2ccccc2)nc2cc(OC)c(OC)cc2c1=N,AC50,Escherichia coli [5],37.6 µM (active)
same,AC50,Escherichia coli [6],51.3 µM (active)
COC(=O)c1sc(N(C)C)c(C#N)c1-c1ccccc1,IC50,Phospholipase A2,8.76 µM (active)
same,IC50,Cysteine protease ATG4B,12.4 µM (active)
Cc1sc2ccccc2c1CC1=NCCN1,AC50,[7],35.5 µM (inconclusive)
Cc1ccc(S(=O)(=O)N2[C@@H](c3ccc(Cl)c(Cl)c3)C(C(=O)O)=C[C@H]2CC2CCCC2)cc1,IC50,Genome polyprotein,43.4 µM (active)
same,CC50,Vero,> 40 µM (active)
same,IC50,[8],6.21 µM (active)
OCC1(Cc2ccc(Cl)cc2)CCN(Cc2ccccc2F)CC1,AC50,Escherichia coli [5],88.9 µM (active)
same,EC50,[9],5.96 µM (active)
same,AC50,Escherichia coli [6],21.9 µM (active)
O=C(Nc1nc2c(Cl)cccc2s1)C1COc2ccccc2O1 (centres undefined),IC50,[10],79.7 µM (active)
same,IC50,[11],> 99 µM (inactive)
same,IC50,[12],> 99 µM (inactive)
same,IC50,Caspase-3,> 99 µM (inactive)
O=C(Nc1nc2ccc(Cl)cc2s1)c1cc2ccccc2o1,IC50,[10],> 99 µM (inactive)
same,IC50,[11],> 99 µM (inactive)
same,IC50,[12],> 99 µM (inactive)
same,IC50,Caspase-3,> 99 µM (inactive)
Cc1nc2sc3c(c2c2nncn12)CCCC3,IC50,[13],> 99 µM (inactive)
same,IC50,[14],> 99 µM (inactive)
CC[C@@H]1Cc2cc(O)ccc2C2=C1c1ccc(O)cc1C[C@H]2CC,AC50,[15],6.32 µM (active)
same,AC50,[16],2.36 µM (active)
same,AC50,[7],25.1 µM (inconclusive)

# — ChEMBL document CHEMBL1201862, “PubChem BioAssay data set” (2004)
